Results published in US20230047816A1 (priority 2018, published 2023).

Molecular target: Recombinant full length human PFKFB3 (Homo sapiens, UniProt Q16875)
Test: PFKFB3 kinase activity assay (ADP production, ADP-Glo)

Recombinant full length human PFKFB3, sequence (Q16875 whole entry): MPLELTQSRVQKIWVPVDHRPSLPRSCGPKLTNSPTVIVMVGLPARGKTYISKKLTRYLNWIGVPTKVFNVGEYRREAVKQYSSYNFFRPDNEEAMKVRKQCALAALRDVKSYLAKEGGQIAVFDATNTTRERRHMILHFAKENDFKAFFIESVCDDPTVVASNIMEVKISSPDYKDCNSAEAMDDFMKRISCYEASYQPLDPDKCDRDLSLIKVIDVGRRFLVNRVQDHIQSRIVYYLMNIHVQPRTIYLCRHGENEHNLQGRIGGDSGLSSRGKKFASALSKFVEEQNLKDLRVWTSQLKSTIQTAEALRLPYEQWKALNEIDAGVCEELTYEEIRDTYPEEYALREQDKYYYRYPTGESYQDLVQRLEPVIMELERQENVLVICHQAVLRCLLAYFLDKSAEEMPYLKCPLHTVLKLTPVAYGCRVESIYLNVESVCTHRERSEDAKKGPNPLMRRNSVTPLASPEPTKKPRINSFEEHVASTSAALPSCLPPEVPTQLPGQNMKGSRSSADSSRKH

| Compound | IC50 [µM] |
| --- | --- |
| O=C(O)c1cc(C(=O)Nc2cc(-c3ccc(F)c(F)c3)ccc2O)c(C(=O)O)cc1O [Example 37, 2-({3′,4′-difluoro-4-hydroxy-[1,1′-biphenyl]-3-yl}carbamoyl)-5-hydroxybenzene-1,4-dicarboxylic acid] | < 0.5 |
| CC(C)[C@H](N)C(=O)OCCOC(=O)c1ccc(-c2ccccc2)cc1N1C(=O)c2ccc(-c3c[nH]nn3)cc2C1=O [Compound 74, 3-[1,3-Dioxo-5-(1H-[1,2,3]triazol-4-yl)-1,3-dihydroisoindol-2-yl]biphenyl-4-carboxylic acid 2-{[(2S)-2-amino-3-methylbutanoyl]oxy}ethyl ester] | < 20 |
| CN(C)CCOC(=O)c1cc(-c2ccccc2)ccc1N1C(=O)c2ccc(-c3c[nH]nn3)cc2C1=O [Compound 78, 4-[1,3-Dioxo-5-(1H-[1,2,3]triazol-4-yl)-1,3-dihydroisoindol-2-yl]biphenyl-3-carboxylic acid 2-dimethylamino-ethyl ester] | 5 to 20 |
| CN(C)CCOC(=O)c1ccc(-c2ccc(Cl)cc2Cl)cc1NC(=O)c1ccc(C(=O)N=S(C)(C)=O)cc1C(=O)O [Example 49, 2-[(2′,4′-dichloro-4-{[2-(dimethylamino)ethoxy]carbonyl}-[1,1′-biphenyl]-3-yl)carbamoyl]-5-{[dimethyl(oxo)-λ^6-sulfanylidene]carbamoyl}benzoic acid] | < 0.5 |
| CS(=O)(=O)Nc1ccc2c(c1)C(=O)N(c1cc(-c3ccc(F)c(F)c3)ccc1C(=O)O)C2 [Compound 131, 3′,4′-Difluoro-3-(6-methanesulfonylamino-1-oxo-1,3-dihydro-isoindol-2-yl)-biphenyl-4-carboxylic Acid] | < 20 |
| O=C1c2ccc(-c3c[nH]nn3)cc2C(=O)N1c1cc(-c2ccccc2)cc[n+]1[O-] [Compound 85, 2-{1,3-Dioxo-5-(1H-[1,2,3]triazol-4-yl)-2,3-dihydro-1H-isoindol-2-yl}-4-phenylpyridine N-oxide] | 5 to 20 |
| O=C(O)c1ccc(-c2ccc(F)c(F)c2)cc1N1Cc2ccc(-n3cnnn3)cc2C1=O [Compound 122, 3′,4′-Difluoro-3-(1-oxo-6-tetrazol-1-yl-1,3-dihydroisoindol-2-yl)biphenyl-4-carboxylic Acid] | 0.5 to 2 |
| CC(C)OC(=O)c1ccc(-c2ccc(F)c(F)c2)cc1N1Cc2ccc(-c3c[nH]nn3)cc2C1=O [Compound 118, 3′,4′-Difluoro-3-[1-oxo-6-(1H-[1,2,3]triazol-4-yl)-1,3-dihydro-isoindol-2-yl]-biphenyl-4-carboxylic acid isopropyl ester] | < 20 |
| O=C(O)c1ccc(-c2ccc(F)c(F)c2)cc1N1Cc2ccc(-c3c[nH]nn3)cc2C1=O [Compound 111, 3′,4′-Difluoro-3-[1-oxo-6-(1H-[1,2,3]triazol-4-yl)-1,3-dihydroisoindol-2-yl]biphenyl-4-carboxylic Acid] | < 0.5 |
| CCCCS(=O)(=O)NC(=O)c1ccc2c(c1)C(=O)N(c1ccc(-c3ccccc3)cc1C(=O)O)C2=O [Example 24, 4-[5-(Butane-1-sulfonylaminocarbonyl)-1,3-dioxo-1,3-dihydroisoindol-2-yl]biphenyl-3-carboxylic Acid] | 2 to 5 |
| CCCCS(=O)(=O)NC(=O)c1ccc2c(c1)C(=O)N(c1sc(C)c(-c3ccc(OC)cc3)c1C#N)C2=O [Example 15] | 5 to 20 |
| CS(=O)(=O)NC(=O)c1ccc2c(c1)C(=O)N(c1cc(-c3ccccc3)ccc1C(=O)O)C2=O [Example 25, 3-(5-Methanesulfonylaminocarbonyl-1,3-dioxo-1,3-dihydroisoindol-2-yl)biphenyl-4-carboxylic Acid] | < 0.5 |
| O=C1c2ccc(-c3c[nH]nn3)cc2C(=O)N1c1cc(-c2ccccc2)ccn1 [Compound 84, 2-(4-Phenylpyridin-2-yl)-5-(1H-[1,2,3]triazol-4-yl)-isoindole-1,3-dione] | 5 to 20 |
| O=C(O)c1ccc2c(c1)C(=O)N(c1ccc(-c3ccccc3)cc1-c1nnn[nH]1)C2=O [Example 2, 1,3-Dioxo-2-[3-(1H-tetrazol-5-yl)-1,1′-biphenyl-4-yl]-2,3-dihydro-1H-isoindole-5-carboxylic Acid] | < 0.5 |
| COC(=O)c1ccc(-c2ccccc2)cc1N1Cc2ccc(C(=O)O)cc2C1=O [Compound 102, 2-(4-Methoxycarbonylbiphenyl-3-yl)-3-oxo-2,3-dihydro-1H-isoindole-5-carboxylic Acid] | < 20 |
| COc1ccc(-c2c(C)sc(NC(=O)c3ccc(-c4c[nH]nn4)cc3C(N)=O)c2C#N)cc1 [Example 8, N1-[3-cyano-4-(4-methoxyphenyl)-5-methylthiophen-2-yl]-4-(2H-1,2,3-triazol-4-yl)benzene-1,2-dicarboxamide] | 5 to 20 |
| O=C(O)c1cc(-c2cnn[nH]2)c(Cl)cc1NC(=O)c1cc(-c2ccc(F)c(F)c2)ccc1C(=O)O [Example 19, 3-((2-carboxy-5-chloro-4-(1H-1,2,3-triazol-5-yl)phenyl)carbamoyl)-3′,4′-difluoro-[1,1′-biphenyl]-4-carboxylic acid] | < 0.5 |
| COc1cc(N2C(=O)c3ccc(C(=O)O)cc3C2=O)ccc1-c1ccccc1 [Example 1] | 5 to 20 |
| COc1ccc(-c2c(C)sc(N3C(=O)c4ccc(C(=O)O)cc4C3=O)c2C#N)cc1 [Example 6] | < 0.5 |
| CC(C)(C)C(=O)OCn1cc(-c2ccc3c(c2)C(=O)N(c2ccc(-c4ccccc4)cc2C(=O)O)C3=O)nn1 [Example 30] | 2 to 5 |
| CN(C)CCOC(=O)c1ccc(-c2ccc(F)c(F)c2)cc1N1Cc2ccc(C(=O)NS(C)(=O)=O)cc2C1=O [Compound 108, 3′,4′-Difluoro-3-(6-methanesulfonylaminocarbonyl-1-oxo-1,3-dihydroisoindol-2-yl)biphenyl-4-carboxylic acid 2-dimethylamino-ethyl ester] | < 20 |
| COC(=O)c1ccc(-c2ccccc2)cc1N1Cc2ccc(-c3c[nH]nn3)cc2C1=O [Compound 91, 3-[1-Oxo-6-(1H-[1,2,3]triazol-4-yl)-1,3-dihydroisoindol-2-yl]biphenyl-4-carboxylic acid methyl ester] | < 20 |
| O=C(O)c1ccc(C(=O)Nc2ncc([N+](=O)[O-])s2)c(C(=O)O)c1 [Example 38, 4-[(5-nitro-1,3-thiazol-2-yl)carbamoyl]benzene-1,3-dicarboxylic acid] | < 0.5 |

The next lines start with the values.

| IC50 [µM] | Compound |
| --- | --- |
| < 20 | N#Cc1cc(-c2ccccc2)ccc1N1C(=O)c2ccc(C(=O)O)cc2C1=O [compound 145, 2-(3-cyanobiphenyl-4-yl)-1,3-dioxoisoindoline-5-carboxylic acid] |
| 5 to 20 | COC(=O)c1cc(-c2ccccc2)c(OC)cc1N1C(=O)c2ccc(-c3c[nH]nn3)cc2C1=O [Example 38] |
| < 20 | NS(=O)(=O)c1ccc(-c2ccccc2)cc1N1C(=O)c2ccc(-c3c[nH]nn3)cc2C1=O [compound 148, 3-(1,3-dioxo-5-(1H-1,2,3-triazol-4-yl)isoindolin-2-yl)biphenyl-4-sulfonamide] |
| < 20 | Cn1cc(-c2ccccc2)cc(N2C(=O)c3ccc(-c4c[nH]nn4)cc3C2=O)c1=O [compound 147, 2-(1-methyl-2-oxo-5-phenyl-1,2-dihydropyridin-3-yl)-5-(1H-1,2,3-triazol-4-yl)isoindoline-1,3-dione] |
| 2 to 5 | O=C(O)c1ccc(-c2cccnc2)cc1N1C(=O)c2ccc(-c3c[nH]nn3)cc2C1=O [Example 49] |
| 0.5 to 2 | O=C(O)c1ccc(C(=O)O)c(C(=O)Nc2ncc([N+](=O)[O-])s2)c1 [Example 39, 2-[(5-nitro-1,3-thiazol-2-yl)carbamoyl]benzene-1,4-dicarboxylic acid] |
| < 20 | COC(=O)c1ccc(-c2ccc(F)c(F)c2)cc1N1Cc2ccc(CO)cc2C1=O [compound 157, methyl 3′,4′-difluoro-3-(6-(hydroxymethyl)-1-oxoisoindolin-2-yl)biphenyl-4-carboxylate] |
| < 0.5 | CC1(C)CCC(c2ccc(C(=O)O)c(NC(=O)c3cc(O)c(C(=O)O)cc3C(=O)O)c2)CC1 [Example 52, 4-{[2-carboxy-5-(4,4-dimethylcyclohexyl)phenyl]carbamoyl}-6-hydroxybenzene-1,3-dicarboxylic acid] |
| < 0.5 | CS(C)(=O)=NC(=O)c1ccc(C(=O)Nc2cc(-c3ccc(F)c(F)c3)ccc2C(=O)O)c(C(=O)O)c1 [Example 41, 3-(2-carboxy-4-{[methyl(methylidene)oxo-λ^6-sulfanyl]carbamoyl}benzamido)-3′,4′-difluoro-[1,1′-biphenyl]-4-carboxylic acid] |
| < 0.5 | CC(COC(=O)c1ccc(-c2ccc(Cl)cc2Cl)cc1NC(=O)c1cc(O)c(C(=O)O)cc1C(=O)O)N(C)C (stereo not drawn) [Example 66, 4-[(2′,4′-dichloro-4-{[2-(dimethylamino)propoxy]carbonyl}-[1,1′-biphenyl]-3-yl)carbamoyl]-6-hydroxybenzene-1,3-dicarboxylic acid] |
| 2 to 5 | Nc1ccc(-c2ccc(N3C(=O)c4ccc(-c5c[nH]nn5)cc4C3=O)c(C(=O)O)c2)cn1 [Example 65] |
| < 0.5 | CC1(C)CCC(c2ccc(C(=O)O)c(NC(=O)c3cc(C(=O)O)c(O)cc3C(=O)O)c2)CC1 [Example 57, 2-{[2-carboxy-5-(4,4-dimethylcyclohexyl)phenyl]carbamoyl}-5-hydroxybenzene-1,4-dicarboxylic acid] |
| 5 to 20 | O=C(OCCN1CCOCC1)c1ccc(-c2ccccc2)cc1N1C(=O)c2ccc(-c3c[nH]nn3)cc2C1=O [Example 67] |
| < 0.5 | CN(C)CCCOC(=O)c1ccc(-c2ccc(Cl)cc2Cl)cc1NC(=O)c1cc(C(=O)O)c(O)cc1C(=O)O [Example 54, 2-[(2′,4′-dichloro-4-{[3-(dimethylamino)propoxy]carbonyl}-[1,1′-biphenyl]-3-yl)carbamoyl]-5-hydroxybenzene-1,4-dicarboxylic acid] |
| < 20 | O=C(O)c1ccc(C(=O)O)c(C(=O)Nc2nc(-c3ccccc3)cs2)c1 [Example 40, 2-[(4-phenyl-1,3-thiazol-2-yl)carbamoyl]benzene-1,4-dicarboxylic acid] |
| 5 to 20 | O=C(O)c1ccc(-c2ccc(F)c(F)c2)cc1N1Cc2ccc(-c3nn[nH]c3CO)cc2C1=O [compound 161, 3′,4′-difluoro-3-(6-(5-(hydroxymethyl)-1H-1,2,3-triazol-4-yl)-1-oxoisoindolin-2-yl)biphenyl-4-carboxylic acid] |
